Laboratory results published in patent US9487501B2, “Pyrazole carboxamide compounds and uses thereof” (Hoffmann-La Roche Inc., priority 2012, dated 2016).
Structures can show the parent of a compound that is named as a salt. Where two headings read alike, the source gives them in different places.

Legend:
rat TAAR1 = rat TAAR1 (Rattus norvegicus (Rat), UniProt Q923Y9); assay: Radioligand binding assay on rat TAAR1;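 note: stably transfected HEK293 cell membranes with a tritiated radioligand, 1 h incubation at 4 °C, nonspecific binding taken as binding with 10 µM unlabeled ligand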
mouse TAAR1 = mouse TAAR1 (Mus musculus (Mouse), UniProt Q923Y8); assay: Radioligand binding assay on mouse TAAR1
[1] = read-out: Ki (μM) rat, rat TAAR1, membranes of HEK-293 cells, radioligand displacement
[2] = read-out: Ki (μM) mouse, mouse TAAR1, membranes of HEK-293 cells, radioligand displacement

Sequence of rat TAAR1 (Q923Y9 whole entry): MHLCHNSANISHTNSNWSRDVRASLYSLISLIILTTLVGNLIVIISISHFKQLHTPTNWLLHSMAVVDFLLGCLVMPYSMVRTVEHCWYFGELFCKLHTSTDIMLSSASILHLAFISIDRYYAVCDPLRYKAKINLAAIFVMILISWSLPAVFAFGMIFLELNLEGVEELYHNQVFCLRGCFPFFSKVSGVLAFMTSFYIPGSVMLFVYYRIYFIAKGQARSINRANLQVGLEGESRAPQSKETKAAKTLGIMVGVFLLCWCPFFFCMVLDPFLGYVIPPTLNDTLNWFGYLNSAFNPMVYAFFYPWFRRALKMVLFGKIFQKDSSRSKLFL
Sequence of mouse TAAR1 (Q923Y8 whole entry): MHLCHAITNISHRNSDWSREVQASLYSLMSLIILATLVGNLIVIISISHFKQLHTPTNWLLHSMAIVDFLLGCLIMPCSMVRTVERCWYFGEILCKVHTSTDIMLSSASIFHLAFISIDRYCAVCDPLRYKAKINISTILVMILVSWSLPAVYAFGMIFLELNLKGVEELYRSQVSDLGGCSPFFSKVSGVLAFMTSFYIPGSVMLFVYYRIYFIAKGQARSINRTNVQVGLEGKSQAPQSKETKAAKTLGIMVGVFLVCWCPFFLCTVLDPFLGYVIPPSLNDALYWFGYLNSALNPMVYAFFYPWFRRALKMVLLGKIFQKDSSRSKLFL

Row | Structure (SMILES) | Ki (rat TAAR1; [1]) [µM] | Ki (mouse TAAR1; [2]) [µM] | Ki (rat TAAR1) [µM] | Ki (mouse TAAR1) [µM]
1 | O=C(Nc1ccc([C@H]2CNCCO2)cc1)c1cnn(-c2ccnc(Cl)n2)c1 [Example 36, (S)-1-(2-chloropyrimidin-4-yl)-N-(4-(morpholin-2-yl)phenyl)-1H-pyrazole-4-carboxamide hydrochloride] | 0.0054 | 0.0086 |  | 
2 | N#Cc1cc(F)ccc1-n1cc(C(=O)Nc2ccc([C@H]3CNCCO3)cc2)cn1 [Example 25, (S)-1-(2-cyano-4-fluorophenyl)-N-(4-(morpholin-2-yl)phenyl)-1H-pyrazole-4-carboxamide hydrochloride] | 0.0078 | 0.0082 |  | 
3 | O=C(Nc1ccc([C@H]2CNCCO2)cc1)c1cnn(-c2ccc(C(F)(F)F)nc2)c1 [Example 51, (S)—N-(4-(morpholin-2-yl)phenyl)-1-(6-(trifluoromethyl)pyridin-3-yl)-1H-pyrazole-4-carboxamide hydrochloride] | 0.0048 | 0.0064 |  | 
4 | O=C(Nc1ccc(C2CCNC2)cc1)c1cnn(-c2ccc(OC(F)F)cc2)c1 (racemic) [Example 54, (RS)-1-(4-difluoromethoxy-phenyl)-1H-pyrazole-4-carboxylic acid (4-pyrrolidin-3-yl-phenyl)-amide] |  |  | 0.0011 | 0.0016
5 | Nc1c(C(=O)Nc2ccc([C@H]3CNCCO3)cc2)cnn1-c1ccc(F)cc1 [Example 2, (S)-5-amino-1-(4-fluorophenyl)-N-(4-(morpholin-2-yl)phenyl)-1H-pyrazole-4-carboxamide dihydrochloride] | 0.401 | 0.0144 |  | 
6 | O=C(Nc1ccc([C@H]2CNCCO2)cc1)c1cnn(-c2cncc(C(F)(F)F)n2)c1 [Example 38, (S)—N-(4-(morpholin-2-yl)phenyl)-1-(6-(trifluoromethyl)pyrazin-2-yl)-1H-pyrazole-4-carboxamide hydrochloride] | 0.0059 | 0.0075 |  | 
7 | O=C(Nc1ccc([C@H]2CNCCO2)cc1)c1cnn(-c2ccc(Br)cn2)c1 [Example 9, (S)-1-(5-bromopyridin-2-yl)-N-(4-(morpholin-2-yl)phenyl)-1H-pyrazole-4-carboxamide hydrochloride] | 0.0043 | 0.0017 |  | 
8 | O=C(Nc1ccc([C@H]2CNCCO2)cc1)c1cnn(-c2ccc(F)cc2)c1 [Example 4, (S)-1-(4-fluorophenyl)-N-(4-(morpholin-2-yl)phenyl)-1H-pyrazole-4-carboxamide hydrochloride] | 0.0033 | 0.0007 |  | 
9 | O=C(Nc1ccc([C@H]2CNCCO2)cc1)c1cnn(-c2cc(Cl)ccn2)c1 [Example 15, (S)-1-(4-chloropyridin-2-yl)-N-(4-(morpholin-2-yl)phenyl)-1H-pyrazole-4-carboxamide hydrochloride] | 0.0036 | 0.0016 |  | 
10 | O=C(Nc1ccc([C@H]2CNCCO2)cc1)c1cnn(-c2nccnc2Cl)c1 [Example 41, (S)-1-(3-chloropyrazin-2-yl)-N-(4-(morpholin-2-yl)phenyl)-1H-pyrazole-4-carboxamide hydrochloride] | 0.0814 | 0.0275 |  | 
11 | O=C(Nc1ccc([C@H]2CNCCO2)cc1)c1cnn(-c2cc(C(F)(F)F)ncn2)c1 [Example 44, (S)—N-(4-(morpholin-2-yl)phenyl)-1-(6-(trifluoromethyl)pyrimidin-4-yl)-1H-pyrazole-4-carboxamide hydrochloride] | 0.0041 | 0.0099 |  | 
12 | COc1cccc(-n2cc(C(=O)Nc3ccc([C@H]4CNCCO4)cc3)cn2)n1 [Example 18, (S)-1-(6-methoxypyridin-2-yl)-N-(4-(morpholin-2-yl)phenyl)-1H-pyrazole-4-carboxamide hydrochloride] | 0.0029 | 0.001 |  | 
13 | N#Cc1cccc(-n2cc(C(=O)Nc3ccc([C@H]4CNCCO4)cc3)cn2)c1 [Example 13, (S)-1-(3-cyanophenyl)-N-(4-(morpholin-2-yl)phenyl)-1H-pyrazole-4-carboxamide hydrochloride] | 0.0072 | 0.0023 |  | 

Second part, led by results:

Row | Ki (rat TAAR1; [1]) [µM] | Ki (mouse TAAR1; [2]) [µM] | Structure (SMILES) | Ki (rat TAAR1) [µM] | Ki (mouse TAAR1) [µM]
14 | 0.315 | 0.0554 | Cc1ccnc(-n2cc(C(=O)Nc3ccc([C@H]4CNCCO4)cc3)cn2)n1 [Example 43, (S)-1-(4-methylpyrimidin-2-yl)-N-(4-(morpholin-2-yl)phenyl)-1H-pyrazole-4-carboxamide hydrochloride] |  | 
15 | 0.0059 | 0.0041 | O=C(Nc1ccc([C@H]2CNCCO2)cc1)c1cnn(-c2ccnc(Cl)c2)c1 [Example 20, (S)-1-(2-chloropyridin-4-yl)-N-(4-(morpholin-2-yl)phenyl)-1H-pyrazole-4-carboxamide hydrochloride] |  | 
16 | 0.0022 | 0.0008 | CCOc1cccc(-n2cc(C(=O)Nc3ccc([C@H]4CNCCO4)cc3)cn2)n1 [Example 28, (S)-1-(6-ethoxypyridin-2-yl)-N-(4-(morpholin-2-yl)phenyl)-1H-pyrazole-4-carboxamide hydrochloride] |  | 
17 | 0.0326 | 0.0199 | N#Cc1cnc(-n2cc(C(=O)Nc3ccc([C@H]4CNCCO4)cc3)cn2)cn1 [Example 42, (S)-1-(5-cyanopyrazin-2-yl)-N-(4-(morpholin-2-yl)phenyl)-1H-pyrazole-4-carboxamide hydrochloride] |  | 
18 | 0.0014 | 0.001 | O=C(Nc1ccc([C@H]2CNCCO2)cc1)c1cnn(-c2cccc(OC(F)F)c2)c1 [Example 22, (S)-1-(3-(difluoromethoxy)phenyl)-N-(4-(morpholin-2-yl)phenyl)-1H-pyrazole-4-carboxamide hydrochloride] |  | 
19 | 0.149 | 0.0531 | O=C(Nc1ccc([C@H]2CNCCO2)cc1)c1cnn(-c2nccc(C(F)(F)F)n2)c1 [Example 48, (S)—N-(4-(morpholin-2-yl)phenyl)-1-(4-(trifluoromethyl)pyrimidin-2-yl)-1H-pyrazole-4-carboxamide hydrochloride] |  | 
20 | 0.167 | 0.0601 | Cc1c(C(=O)Nc2ccc([C@H]3CNCCO3)cc2)cnn1-c1ccc(C#N)cc1 [Example 35, (S)-1-(4-cyanophenyl)-5-methyl-N-(4-(morpholin-2-yl)phenyl)-1H-pyrazole-4-carboxamide hydrochloride] |  | 
21 | 0.0345 | 0.0195 | N#Cc1cncc(-n2cc(C(=O)Nc3ccc([C@H]4CNCCO4)cc3)cn2)n1 [Example 47, (S)-1-(6-cyanopyrazin-2-yl)-N-(4-(morpholin-2-yl)phenyl)-1H-pyrazole-4-carboxamide hydrochloride] |  | 
22 | 0.0029 | 0.0035 | O=C(Nc1ccc([C@H]2CNCCO2)cc1)c1cnn(-c2ccnc(Br)c2)c1 [Example 16, (S)-1-(2-bromopyridin-4-yl)-N-(4-(morpholin-2-yl)phenyl)-1H-pyrazole-4-carboxamide hydrochloride] |  | 
23 | 0.0002 | 0.0008 | Cc1nn(-c2ccc(OC(F)F)cc2)cc1C(=O)Nc1ccc([C@H]2CNCCO2)cc1 [Example 32, (S)-1-(4-(difluoromethoxy)phenyl)-3-methyl-N-(4-(morpholin-2-yl)phenyl)-1H-pyrazole-4-carboxamide hydrochloride] |  | 
24 | 0.0435 | 0.0088 | Cc1cncc(-n2cc(C(=O)Nc3ccc([C@H]4CNCCO4)cc3)cn2)n1 [Example 39, (S)-1-(6-methylpyrazin-2-yl)-N-(4-(morpholin-2-yl)phenyl)-1H-pyrazole-4-carboxamide hydrochloride] |  | 
